Measured values reported in patent US10265275B2, “Phenolic coatings and methods of making and using same” (Northwestern University, priority 2013, dated 2019).
Like-named read-outs stand apart in the source and are kept apart here.

Experiment: Potentiometric titration, first pKa
Type: physicochemical
Description: In order to investigate the relationship between coating pH and deprotonation, coating precursor molecules were studied via potentiometric titrations. A solution of tannic acid was made by dissolving ˜1 mg in 2 mL of 100 mM KCl in a glass test tube to perform the titration. The TA and KOH solutions were degassed by aggressively sparging argon for no less than 30 min. Base was titrated in 1.0 μL increments, and the total amount added was 250 μL. If oxygen is purged correctly, the phenolic solution should display little or no change in color throughout the titration. The first pKa was calculated by initially plotting the volume of base added versus pH. The first derivative of this curve was then plotted as a function of pH, and the pKa was calculated by determining the pH associated with any local maxima.

[1] = aqueous 100 mM KCl solution, 100 mM KCl, degassed, KOH titration, read-out: First pKa
[2] = first pKa minus optimal coating pH

Row | Molecule | pKa [1] | pKa − pH [2] | pKa | pKa − pH | First pKa (100 mM KCl, degassed, KOH titration)
1 | Oc1ccccc1O [Catechol, catechol] | 9.5 | 1.5 | – | – | –
2 | Oc1ccc(O)c(O)c1 [HHQ, hydroxyhydroquinone] | – | – | 9.1 | 3.1 | –
3 | epigallocatechin-3-gallate [EGCG] | – | 1.1 | – | – | 8.1

More lines, now with the values ahead:

Row | pKa [1] | pKa − pH [2] | pKa | pKa − pH | First pKa (100 mM KCl, degassed, KOH titration) | Molecule
4 | 9.3 | – | – | 2.3 | – | Oc1cccc(O)c1O [PG, 1,2,3-trihydroxybenzene]
5 | – | – | 7.7 | 0.7 | – | O=C(OC[C@H]1O[C@@H](OC(=O)c2cc(O)c(O)c(OC(=O)c3cc(O)c(O)c(O)c3)c2)[C@H](OC(=O)c2cc(O)c(O)c(OC(=O)c3cc(O)c(O)c(O)c3)c2)[C@@H](OC(=O)c2cc(O)c(O)c(OC(=O)c3cc(O)c(O)c(O)c3)c2)[C@@H]1OC(=O)c1cc(O)c(O)c(OC(=O)c2cc(O)c(O)c(O)c2)c1)c1cc(O)c(O)c(OC(=O)c2cc(O)c(O)c(O)c2)c1 [Tannic acid, tannic acid]
